Results on two compounds are retold here after patent US9745299B2, “Substituted tricyclic benzimidazoles as kinase inhibitors” (SELVITA SA, priority 2012, dated 2017).

Counter-ions that a name gives are not always drawn.

In assay [1] the test system is HCT116 cells. In words: Matrigel Invasion Chambers, HCT116 invasion. The conditions noted are these: increasing concentrations, 22 h, 10% FBS chemoattractant. The assay is classed as cell-based, human. As for the experimental part: Matrigel Invasion Chambers [catalog number 354480 (BD Biosciences)] are useful to study cell invasion of malignant and normal cells. Matrigel Invasion Chambers can be used to study the mechanisms of invasion and to identify factors that interfere with this process in an in vitro environment. According to standard assays known to the skilled person, 5×10^4 HCT116 cells/ml were added in each case to the upper chamber of the Matrigel Invasion Chambers in the presence of increasing concentrations of “Example 1K”, whereas chemoatractant comprising 10% FBS was added to the lower chamber. The Invasion Chambers were incubated for 22 h in a humidified tissue culture incubator at 37° C., 5% CO2. Non-invading cells were removed by scrubing. The cells on the lower surface of the membrane were then stained with Diff-Quik™ stain. The results shown in FIG. 4 indicate that strong and selective CDK8 inhibitors as the “Example 1K” compound appear to be capable of repressing invasiveness of HCT116 colon cancer cells.

Assay [2] concerns HCT116 tumor. In words: HCT116 xenograft tumor growth in NOD/SCID mice. The assay is classed as in vivo. The conditions noted are these: oral administration, 30 mg/kg. As for the experimental part: The substituted Tricyclic Benzimidazoles of the present invention are useful as anti-cancer agents due to their ability to reduce tumor growth in vivo in mammals. Various well-accepted animal models exist for cancer. By way of example, antitumor activity can be evaluated in vivo in murine xenograft models. Briefly, female mice, NOD/SCID, 5-6 weeks old, were used for the study. On the 1st experimental day, 5*10^6 HCT116 cells were suspended in 0.1 ml 0.9% NaCl+Matrigel® (BD Biosciences) (1:1, v:v) and were injected subcutaneously, on the right side just above the groin. As the tumor growth was progressing, the tumor size was measured every day, and the tumor volume was computed from the formula: TV=(a*a*b)/2 in mm3, where a is the short axis in mm, and b is the long axis in mm. When the average tumor volume reached and exceeded 100 mm3, mice were randomized into uniform groups and subjected to the compound administrations. The administration of the compound was performed and continued according to the experimental schedule.
The tumor volume was monitored throughout the study and the tumor growth inhibition (TGI) was computed using the following formula: TGI [%]=((Av Norm TGC−Av Norm TGT)/Av Norm TGC)×100, where Av Norm TGC is the mean (average) normalized tumor growth of the control group, and Av Norm TGT is the mean (average) normalized tumor growth of the treated group. […]

Assay [3] concerns IL6. In words: LPS assay, IL-6 ELISA in RAW 264.7. The class given is cell-based, mouse. The conditions noted are these: RAW 264.7, 4 h pre-incubation, LPS 1 μg/ml for 6 h. The source says: (§1) The LPS assay was used to evaluate ability to respond to an inflammatory stimulus by mounting an acute phase response. The acute phase response is characterized by a dramatic increase in the production of a group of proteins by the liver. Bacterial LPS is an endotoxin, a potent inducer of the acute phase response and systemic inflammation. This response is induced by the production of TNFα, IL-1β, and IL-6 from activated monocytes and neutrophils in response to inflammatory stimuli. Evaluation of the three pro-inflammatory cytokines, TNFα, IL-1β, and IL-6, is the current standard method for evaluation of the ability of the immune system to mount an innate inflammatory immune response. In each case, and by methods known to those practiced in the art, RAW 264.7 Mouse leukaemic monocyte macrophage cells were plated at the density of 40 000 cells per well. Next day, cells were pre-incubated with tested compounds (fconc=10 μM) for 4 h and then stimulated with LPS (fconc=1 μg/ml) for 6 h. In the cell culture media IL-6 and TNFα levels were examined by ELISA using BD OptEIA™ Mouse IL-6 ELISA Set Cat. No 555240 and BD OptEIA™ Mouse TNFα ELISA Set Cat. No 555268 (BD Biosciences Pharmingen, SanDiego, Calif., USA), according to manufacturer's instructions.
(In general: ELISA stands for enzyme-linked immunosorbent assay.)

Assay [4] concerns HCT116 cells. In words: Combination with Oxaliplatin, MTS cell viability assay, Chou-Thalay method. The class given is cell-based, human. The source says: Various well-accepted models exist for determination of synergistic and additive effect for two or more drugs in combination. As a matter of example combination index CI can be used as a quantitative measure of the degree of drug interaction in terms of synergism, additive effects and antagonism for a given endpoint of the measurement:
Synergism (C<1) greater than expected additive effect
Additive effect (CI=1) the combined effect predicted by the mass-action law principle in the absence of synergism or antagonism
Antagonism (CI>1) Smaller than expected additive effect
In the present example, the drug interactions between compound “Example 6” and Oxaliplatin which is a platinum-based type of anticancer chemotherapy medicine used to treat colorectal cancer were tested in HCT116 cells. Experimental data points in the MTS cell viability assay were spread for Oxaliplatin below and above the ED50 values in HCT116 cells, whereas concentration of the tested compounds was close to the apparent ED50. Chou-Thalay method for quantification of synergy was applied [Chou et al. Cancer Res. 15; 70(2):440-6, (2010)].

The test system of assay [5] is TNFalpha. In words: LPS assay, TNFα ELISA in RAW 264.7. The assay is classed as cell-based, mouse. The conditions noted are these: RAW 264.7, 4 h pre-incubation, LPS 1 μg/ml for 6 h.
Excerpt: as §1

Turning to `Cc1c(Br)c(Br)c2c3c1nc(N1CCNCC1)n3CCC2` [Example 1K], the “invasiveness of HCT116 cells (FIG. 4)” value in assay [1] was “Repression of the invasiveness”. Besides, the “HCT116 tumor growth (FIG. 1)” value in assay [2] is given as “Inhibition of HCT116 tumor growth”.
On to `Brc1c(Br)c2c3c(nc(N4CCNCC4)n3CCC2)c1Br` [Example 6, 7,8,9-tribromo-2-(piperazin-1-yl)-5,6-dihydro-4H-imidazo[4,5,1-ij]quinoline maleate], for which the “LPS-induced IL6 production (FIG. 3)” value in assay [3] is recorded as “dose dependent reduction”. Also, in assay [2], the “HCT116 tumor growth (FIG. 1)” value is “Inhibition of HCT116 tumor growth”. Besides, the “Combination Index (CI)” value in assay [4] (Example 6 0.6 μM + Oxaliplatin 0.0010 μM) is 1.15; in assay [4] (Example 6 0.6 μM + Oxaliplatin 0.01 μM) it was 0.99; in assay [4] (Example 6 0.6 μM + Oxaliplatin 0.1 μM), 1.11; in assay [4] (Example 6 0.6 μM + Oxaliplatin 1.0 μM), 0.69; in assay [4] (Example 6 0.6 μM + Oxaliplatin 2.5 μM), 0.38; in assay [4] (Example 6 0.6 μM + Oxaliplatin 5.0 μM) it was 0.29. In assay [5], the “LPS-induced TNFalpha production (FIG. 3)” value was “dose dependent reduction”.
